According to patent EP2245032B1, “FOLATES, COMPOSITIONS AND USES THEREOF” (priority 2008, dated 2009):
Structures can show the parent of a compound that is named as a salt.

Experiments:
[1] = after twelve months; US 6,441,168 (Example 1); 525600 min; cited from earlier work
[2] = Stability of the powder in sealed aluminium foil bag, purity and titre by HPLC after 6 and 12 months; assay type: physicochemical; settings: airtight container, protected from light; for Starting values Purity / Starting values Titre: start
Experimental: The stability of the compounds listed in the following table, under powder form and in sealed aluminium foil bag, was tested, keeping the samples in airtight container, protected from light and measuring the purity and the titre thereof after 6 and 12 months.
In particular, the stability of the acid moiety was observed by HPLC, detecting the purity and titre thereof.

[3] = general knowledge stated in the introduction; cited from earlier work

After 6 months Purity [2]	After 6 months Titre [2]	After 12 months Purity [2]	After 12 months Titre [2]	Starting values Purity [2]	Starting values Titre [2]	Structure (SMILES)	titre decrease [1]	solubility in water (in words) [3]
–	–	–	–	–	–	CN1c2c(nc(N)[nH]c2=O)NCC1CNc1ccc(C(=O)NC(CCC(=O)O)C(=O)O)cc1 [5-methyl-(6S)-tetrahydrofolic acid calcium salts]	about 1%	–
98.9	55.2	98.7	55.3	99.1	55.5	CN1c2c(nc(N)[nH]c2=O)NCC1CNc1ccc(C(=O)N[C@@H](CCC(=O)O)C(=O)O)cc1 (stereo partly drawn) [D-GAL (6R,S)-5-MTHF, D-galactosamine 5-methyl-(6R,S)-tetrahydrofolate]	–	–
99.1	54.5	98.7	54.2	99.2	54.8	Nc1nc2ncc(CNc3ccc(C(=O)N[C@@H](CCC(=O)O)C(=O)O)cc3)nc2c(=O)[nH]1 [D-GAL folate, D-galactosamine L-folate]	–	–
98.9	55.0	99.0	54.8	99.1	55.2	CN1c2c(nc(N)[nH]c2=O)NCC1CNc1ccc(C(=O)N[C@@H](CCC(=O)O)C(=O)O)cc1 (stereo partly drawn) [D-GLU 5-MTHF, D-glucosamine 5-methyl-(6R,S)-tetrahydrofolate]	–	–
99.0	55.4	98.5	55.1	99.3	55.7	CN1c2c(nc(N)[nH]c2=O)NCC1CNc1ccc(C(=O)NC(CCC(=O)O)C(=O)O)cc1 [D-GLU (6S)-5-MTHF, D-glucosamine 5-methyl-(6S)-tetrahydrofolate]	–	–
98.8	54.3	98.7	54.0	99.1	54.6	Nc1nc2ncc(CNc3ccc(C(=O)N[C@@H](CCC(=O)O)C(=O)O)cc3)nc2c(=O)[nH]1 [D-GLU folate, D-glucosamine L-folate]	–	–
–	–	–	–	–	–	Nc1nc2ncc(CNc3ccc(C(=O)N[C@@H](CCC(=O)O)C(=O)O)cc3)nc2c(=O)[nH]1 [Folic acid, N-[4-[[(2-amino-1,4-dihydro-4-oxo-6-pteridinyl)methyl]amino]benzoyl]-L-glutamic acid]	–	very slightly soluble in water
